The structures appear in SMILES notation.

The target in this assay is T1, GST-hLGK1 (human liver GK) (Homo sapiens, UniProt P35557).
T1 construct: made in house; host or cells: Escherichia coli BL21 (Stratagene), plasmid pGEX6P-2/hLGK1
T1 sequence (P35557 1-464 isoform P35557-3): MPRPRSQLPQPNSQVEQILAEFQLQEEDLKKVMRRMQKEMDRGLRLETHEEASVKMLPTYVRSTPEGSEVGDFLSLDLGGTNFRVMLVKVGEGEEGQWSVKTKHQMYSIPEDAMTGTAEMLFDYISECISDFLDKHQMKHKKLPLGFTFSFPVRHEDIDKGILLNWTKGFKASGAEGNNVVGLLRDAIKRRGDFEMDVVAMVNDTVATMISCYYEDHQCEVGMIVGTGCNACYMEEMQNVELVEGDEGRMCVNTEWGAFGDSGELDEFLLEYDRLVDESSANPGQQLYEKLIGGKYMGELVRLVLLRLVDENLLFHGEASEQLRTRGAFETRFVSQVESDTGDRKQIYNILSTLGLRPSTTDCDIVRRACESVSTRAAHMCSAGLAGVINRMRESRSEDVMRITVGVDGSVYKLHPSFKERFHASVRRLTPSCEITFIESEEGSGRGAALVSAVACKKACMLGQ
The experiment in a line: Determination of GK activity value (GST-hLGK1, Mant-ATP, capillary electrophoresis). Format: biochemical. As to conditions: glucokinase activation; GST-hLGK1, D-glucose, 37° C. for 60 min; concentration at midpoint between maximum activity value and control group activity value. The method, then: Plasmid DNA to be used for the expression of a protein (GST-hLGK1) containing GST (Glutathione S-transferase) added to the amino terminal of human liver GK in Escherichia coli was prepared as follows.
BL21 strain (Stratagene) transformed with pGEX6P-2/hLGK1 obtained in Reference Example 1A was cultured with shaking at 37° C. for 14 hr in a 200 ml Erlenmeyer flask containing 50 ml of 100 μg/ml ampicillin-containing LB medium. The culture medium (25 ml) was diluted with 225 ml of 100 μg/ml ampicillin-containing LB medium, and further cultured with shaking at 37° C. for 1 hr in a 1 L Erlenmeyer flask. After culture, the Erlenmeyer flask was cooled on ice, 125 μL of 100 mM isopropyl-thio-β-D-galactopyranoside (IPTG) was added (final concentration 50 μM), and cultured at 17° C. for 20 hr. The culture medium was centrifuged, and the obtained fungus was disrupted by ultrasonication. The object protein (GST-hLGK1) was purified from the supernatant using Glutathione Sepharose 4B (Amersham Biosciences K.K.).
A solution (5 μL) of test compound in 50% dimethyl sulfoxide was added to each well of 384 well black plate (Nalge Nunc International K.K.). Then, a solution ([…]) obtained by diluting GST-hLGK1 obtained in Reference Example 2A with measurement buffer (containing 50 mM HEPES (pH 7.4), 200 mM KCl, 5 mM MgCl2, 2.5 mM DTT and 50 μM 2′-(or-3′)-O—(N-methylanthraniloyl)adenosine 5′-triphosphate (Mant-ATP) (Jena Bioscience GmbH)) to 6 μg/mL was added to each well.
Each well was stood at 37° C. for 10 min, and 25 mM D-glucose solution (10 μL) was added to start the reaction.
Each well after the reaction was stood at 37° C. for 60 min, and the reaction was quenched by adding 25 μL of a quenching solution (containing 200 mM HEPES (pH 7.4), 20 mM MgCl2, 200 mM EDTA, 0.03% Triton-X 100, 0.3% Coating 3 reagent (Caliper Life Sciences, Inc.)).
2′-(or-3′)-O—(N-methylanthraniloyl)adenosine 5′-triphosphate (Mant-ATP, substrate) and Mant-ADP (reaction resultant product) were separated from each well after the reaction by a microchip type capillary electrophoresis apparatus 250 HTS (Caliper Life Sciences, Inc.). The reaction rate [(reaction resultant product peak height)/(reaction resultant product peak height+substrate peak height)×100(%)] was calculated from the ratio of the substrate peak height and reaction resultant product peak height obtained by fluorescence detection (excitation wavelength 355 nm, measurement wavelength 460 nm) and used as the index of GK activity.
As a control group, the reaction rate was calculated in the same manner as above except that “solution in 50% dimethyl sulfoxide (without test compound)” was used instead of “solution of test compound in 50% dimethyl sulfoxide”.
A concentration dependency curve of the test compound was drawn with the percentage obtained by dividing the reaction rate of the well added with the test compound (test compound addition group) by the reaction rate of the control group was taken as the GK activity value of the test compound, and the concentration of the test compound at the midpoint between the maximum activity value of the test compound addition group and the control group activity value is shown as EC50 value.
For orientation: EC50 means the midpoint of the concentration-response curve. Read a low EC50 as a more potent agent. As for `CN(c1cc(OC(F)(F)F)cc2cc(C3=NCC(CC(N)=O)S3)[nH]c12)S(=O)(=O)c1cccs1` (single isomer, unassigned) [Example 520, 2-{2-[7-[methyl(2-thienylsulfonyl)amino]-5-(trifluoromethoxy)-1H-indol-2-yl]-4,5-dihydro-1,3-thiazol-5-yl}acetamide], the response was half-maximal at 190 nM (EC50).

Take `COCCOc1cc(N(C)S(=O)(=O)c2ccccn2)c2[nH]c(C3=NCC(CN4CCS(=O)(=O)CC4)S3)cc2c1` (single isomer, unassigned) [Example 528, N-[2-{5-[(1,1-dioxidothiomorpholino)methyl]-4,5-dihydro-1,3-thiazol-2-yl}-5-(2-methoxyethoxy)-1H-indol-7-yl]-N-methylpyridine-2-sulfonamide]: a half-maximal response (EC50) required 260 nM.

`CN(C)C(=O)CN1CCN(Cc2cnc(-c3cc4cccc(N(C)S(=O)(=O)c5cccs5)c4[nH]3)s2)CC1` [Example 10, N,N-dimethyl-2-{4-[(2-{7-[methyl(2-thienylsulfonyl)amino]-1H-indol-2-yl}-1,3-thiazol-5-yl)methyl]piperazin-1-yl}acetamide ditrifluoroacetate] gave an EC50 of 210 nM.

For `CC(=O)N1CCN(Cc2cnc(-c3cc4c(Cl)ccc(N(C)S(=O)(=O)c5cccs5)c4[nH]3)s2)CC1` [Example 191, N-(2-{5-[(4-acetylpiperazin-1-yl)methyl]-1,3-thiazol-2-yl}-4-chloro-1H-indol-7-yl)-N-methylthiophene-2-sulfonamide], the EC50 was found to be 31 nM.

As for `CC(=O)N1CCN(Cc2nnc(-c3cc4cccc(N(C)S(=O)(=O)c5cccs5)c4[nH]3)s2)CC1` [Example 198, N-(2-{5-[(4-acetylpiperazin-1-yl)methyl]-1,3,4-thiadiazol-2-yl}-1H-indol-7-yl)-N-methylthiophene-2-sulfonamide], the EC50 is 530 nM.

Take `CN(c1cccc2cc(C3=NCC(C)(CCN4CCOCC4)S3)[nH]c12)S(=O)(=O)c1cccs1` (centres unmarked) [Example 200, N-methyl-N-{2-[5-methyl-5-(2-(morpholino)ethyl)-4,5-dihydro-1,3-thiazol-2-yl]-1H-indol-7-yl}thiophene-2-sulfonamide]: the EC50 was 61 nM.

Molecule `CC(=O)N1CCN(CC2CN=C(c3cc4cccc(N(C)S(=O)(=O)c5cccs5)c4[nH]3)S2)CC1` (centres unmarked) [Example 218, N-(2-{5-[(4-acetylpiperazin-1-yl)methyl]-4,5-dihydro-1,3-thiazol-2-yl}-1H-indol-7-yl)-N-methylthiophene-2-sulfonamide] registered an EC50 of 180 nM.

`CN(c1cccc2cc(C3=NCC(C(C)(C)O)S3)[nH]c12)S(=O)(=O)c1cccs1` (centres unmarked) [Example 226, N-{2-[5-(1-hydroxy-1-methylethyl)-4,5-dihydro-1,3-thiazol-2-yl]-1H-indol-7-yl}-N-methylthiophene-2-sulfonamide] came in with an EC50 of 53 nM.

Molecule `CN(c1cccc2cc(-c3ncc(CN4CCN5C(=O)OCC5C4)s3)[nH]c12)S(=O)(=O)c1cccs1` (centres unmarked) [Example 229, N-methyl-N-(2-{5-[(3-oxotetrahydro[1,3]oxazolo[3,4-a]pyrazin-7(1H)-yl)methyl]-1,3-thiazol-2-yl}-1H-indol-7-yl)thiophene-2-sulfonamide] gave an EC50 of 120 nM.

As to `CCN(c1cccc2cc(-c3ncc(CN4CCn5cnnc5C4)s3)[nH]c12)S(=O)(=O)c1cccs1` [Example 236, N-{2-[5-(5,6-dihydro[1,2,4]triazolo[4,3-a]pyrazin-7(8H)-ylmethyl)-1,3-thiazol-2-yl]-1H-indol-7-yl}-N-ethylthiophene-2-sulfonamide], the EC50 is 250 nM.

Regarding `CN(c1cccc2cc(C3=NCC4(CCOCC4)S3)[nH]c12)S(=O)(=O)c1cccs1` [Example 243, N-methyl-N-[2-(8-oxa-1-thia-3-azaspiro[4.5]dec-2-en-2-yl)-1H-indol-7-yl]thiophene-2-sulfonamide], the EC50 amounted to 24 nM.
